Legend:
[1] = system: DOHH2 and TMD8 DLBCL cells; test: Gene Set Enrichment Analysis (GSEA) of gene expression profiles, ST7612AA1 300 nM 8 hrs; format: cell-based, human
[2] = system: acetylation of histone H4 in NCI-H460 NSCLC cells; test: Western blot with densitometry, histone H4 acetylation; format: cell-based, human; conditions: for Acetyl H4/H4: vehicle 0,0274
Experimental: For assessing the in vitro effect of ST7612AA1 on acetylation of α-tubulin and histones, NSCLC cells were treated with the test compound at various concentrations (dose-response curve). SAHA 5 μM was used as reference inhibitor. Protein extraction, separation and immunoblotting were performed as previously described. Immunoreactive bands were finally subjected to densitometry analysis by a phosphoimaging system (STORM, Molecular Dynamics), and then the IC50 values were calculated by the “ALLFIT” computer program. The antibodies used are listed in Supplementary Table 2.

[3] = GSEA.C2.CP.REACTOME, up-regulated genes
[4] = GSEA.C3.TFT, in both sheets (down- and up-regulated)
[5] = SignatureDB, down-regulated genes
[6] = SignatureDB, up-regulated genes

Q: Which results are given for CC(=O)SCCCCC[C@H](NC(=O)[C@H]1CCC(=O)N1)C(=O)Nc1ccccc1 [ST7612AA1]?
A: NES REACTOME_MEIOTIC_SYNAPSIS [1, 3]: 1.86; NES REACTOME_PACKAGING_OF_TELOMERE_ENDS [1, 3]: 2.135; NES REACTOME_RNA_POL_I_PROMOTER_OPENING [1, 3]: 2.137; NES REACTOME_RNA_POL_I_TRANSCRIPTION [1, 3]: 1.892; NES REACTOME_TELOMERE_MAINTENANCE [1, 3]: 1.906; NES TTTNNANAGCYR_UNKNOWN [1, 4]: 1.939; NES V$CEBP_Q2 [1, 4]: 1.715; NES V$CEBP_Q2_01 [1, 4]: 1.7492; NES V$CREBP1_01 [1, 4]: 1.784; NES V$E4BP4_01 [1, 4]: 1.766; NES V$GATA_Q6 [1, 4]: 1.724; NES V$HLF_01 [1, 4]: 1.724; NES V$MYOGENIN_Q6 [1, 4]: 1.714; NES V$OCT1_B [1, 4]: 1.782; NES […]_UNKNOWN [1, 4]: 2.04; NES CSR_EARLY_UP.V1_UP ([1]; GSEA.C6, down-regulated genes): -1.379; NES EIF4E_UP ([1]; GSEA.C6, down-regulated genes): -1.468; NES ERB2_UP.V1_DN ([1]; GSEA.C6, down-regulated genes): -1.443; NES ESC_J1_UP_LATE.V1_DN ([1]; GSEA.C6, down-regulated genes): -1.204; NES GCNP_SHH_UP_EARLY.V1_UP ([1]; GSEA.C6, down-regulated genes): -1.491; NES GCNP_SHH_UP_LATE.V1_UP ([1]; GSEA.C6, down-regulated genes): -1.454; NES MEK_UP.V1_DN ([1]; GSEA.C6, down-regulated genes): -1.169; NES MYC_UP.V1_UP ([1]; GSEA.C6, down-regulated genes): -2.19; NES VEGF_A_UP.V1_DN ([1]; GSEA.C6, down-regulated genes): -1.363; NES BCAT.100_UP.V1_UP ([1]; GSEA.C6, up-regulated genes): 1.912; NES CAHOY_NEURONAL ([1]; GSEA.C6, up-regulated genes): 1.833; NES E2F3_UP.V1_UP ([1]; GSEA.C6, up-regulated genes): 1.833; NES ERB2_UP.V1_UP ([1]; GSEA.C6, up-regulated genes): 2.065; NES ESC_V6.5_UP_LATE.V1_UP ([1]; GSEA.C6, up-regulated genes): 1.857; NES MEK_UP.V1_UP ([1]; GSEA.C6, up-regulated genes): 2.011; NES P53_DN.V1_UP ([1]; GSEA.C6, up-regulated genes): 1.814; NES RAF_UP.V1_UP ([1]; GSEA.C6, up-regulated genes): 1.891; NES STK33_SKM_UP ([1]; GSEA.C6, up-regulated genes): 1.998; NES STK33_UP ([1]; GSEA.C6, up-regulated genes): 1.832; NES BLOOD_MODULE-3.7_UNDETERMINED [1, 5]: -2.014; NES GLUTAMINE_STARVE_DOWN [1, 5]: -2.082; NES HIF1ALPHA_1.5X_DOWN [1, 5]: -2.057; NES MYC_CHIP_PET_EXPR_UP [1, 5]: -2.152; NES MYC_OVEREXPRESSION_1.5X_UP [1, 5]: -2.439; NES MYC_OVEREXPRESSION_2X_UP [1, 5]: -2.047; NES MYELOMA_TACI_LOW_PLASMABLAST_GENE [1, 5]: -1.944; NES NOTCH_T-ALL_UP_PALOMERO [1, 5]: -2.039; NES PROLIFERATION_NODE1640 [1, 5]: -2.024; NES RAPAMYCIN_BJAB_DOWN [1, 5]: -1.887; NES BLOOD_MODULE-1.2_PLATELETS [1, 6]: 0.6607; NES BLOOD_MODULE-3.2_INFLAMMATION-1 [1, 6]: 0.6587; NES CNS_PNS_NODE1663 [1, 6]: 0.6849; NES HIF1ALPHA_1.5X_UP [1, 6]: 0.6544; NES HRAS_OVEREXPRESSION_4X_UP [1, 6]: 0.6606; NES JAK2_DOWNREGULATED_PMBL [1, 6]: 0.6252; NES KRAS_UP [1, 6]: 0.6774; NES NORMAL_MESENCHYMAL-1_NODE1643 [1, 6]: 0.6887; NES RETICULOCYTE_LARGE [1, 6]: 0.7092; NES SERUM_RESPONSE_FB_DOWN [1, 6]: 0.6176; Acetyl H4/H4 ([2]; 0,2 µM, NCI-H460): 0,3352; Acetyl H4/H4 ([2]; 0,04 µM, NCI-H460): 0,3092; Acetyl H4/H4 ([2]; 1 µM, NCI-H460): 0,3757; IC50 ([2]; Homo sapiens, NCI-H460, 3 h exposure, Western blot densitometry, read-out: IC50 for increasing the acetylation of histone H4): 4.8 nM; fold more potent in increasing acetylation of histone H4 than of tubulin ([2]; NCI-H460): 40 fold

Reference: PMC4467398, “Preclinical antitumor activity of ST7612AA1: a new oral thiol-based histone deacetylase (HDAC) inhibitor” (Oncotarget, 2014)
